Measurements reported in patent US20230002374A1, “GPR52 MODULATOR COMPOUNDS” (Heptares Therapeutics Limited, priority 2019, published 2023).
Where two headings read alike, the source gives them in different places.

Molecular target: human GPR52 (Homo sapiens, UniProt Q9Y2T5)
Assay: GPR52 Agonist Functional cAMP Assay;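 also: HEKf cells transduced with GPR52 BacMam for 24 h, 2000 per well, exposed to compounds 30 min at 37° C with 0.5 mM IBMX, cAMP read by HTRF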
Conditions: for EC50: pEC50 average, HEKf cells infected with human GPR52 BacMam virus, cAMP HTRF, 30 min at 37° C.
[1] = maximal response normalised to DMSO (0%) and maximal compound 7m (J. Med. Chem., 2014, 57, 5226) response (100%)

Chain of human GPR52 (Q9Y2T5 whole entry): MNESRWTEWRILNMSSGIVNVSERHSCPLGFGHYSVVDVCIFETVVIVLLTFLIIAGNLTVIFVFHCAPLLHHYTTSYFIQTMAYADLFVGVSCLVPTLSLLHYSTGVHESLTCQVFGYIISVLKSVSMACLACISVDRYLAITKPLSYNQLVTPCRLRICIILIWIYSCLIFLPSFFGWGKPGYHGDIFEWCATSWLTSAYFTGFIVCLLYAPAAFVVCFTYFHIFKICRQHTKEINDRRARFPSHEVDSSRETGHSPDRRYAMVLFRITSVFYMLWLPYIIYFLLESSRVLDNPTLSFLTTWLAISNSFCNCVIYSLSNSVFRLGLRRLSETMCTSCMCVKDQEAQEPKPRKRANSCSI
Protocol: Following BacMam infection, cells were pelleted by centrifugation (335 g, 5 min), resuspended in cell freezing medium (Sigma) and frozen at −150° C. until required. On experiment day, 25 nL GPR52 compound dilutions, prepared in DMSO, were stamped onto proxiplates (PerkinElmer) by a LabCyte ECHO acoustic dispenser. Frozen cells were thawed and resuspended in assay stimulation buffer (Cisbio) containing 0.5 mM 3-iso-butyl-1-methylxanthine (IBMX, Sigma) to achieve a density of 2000 cells per well. 10 μl cells were added to assay plates using a Multidrop Combi Reagent Dispenser (ThermoFisher) before centrifugation (335 g, 1 min). Cells were incubated with compounds at 37° C. for 30 min prior to addition of cAMP detection reagents (HiRange cAMP kit, Cisbio) which were prepared according to the manufacturer's instructions. Plates were shaken for 1 h at room temperature before reading on a PHERAstar FS plate reader (BMG Labtech) using standard HTRF settings.

Cc1nn(-c2ccnc(C(O)c3cc(F)cc(C(F)(F)F)c3)c2)c2c1C(=O)NCC2 (single isomer, unassigned) [117 Isomer 1, 1-(2-((3-fluoro-5-(trifluoromethyl)phenyl)(hydroxy)methyl)pyridin-4-yl)-3-methyl-1,5,6,7-tetrahydro-4H-pyrazolo[4,3-c]pyridin-4-one]
Emax [1]: 83%
EC50: 251 nM

Cc1nn(-c2cc(C(O)c3cc(F)cc(C(F)(F)F)c3)ccn2)c2c1C(=O)NCC2 (single isomer, unassigned) [118 Isomer 1, 1-(4-((3-fluoro-5-(trifluoromethyl)phenyl)(hydroxy)methyl)pyridin-2-yl)-3-methyl-1,5,6,7-tetrahydro-4H-pyrazolo[4,3-c]pyridin-4-one]
Emax [1]: 94%
EC50: 126 nM

CC1Cc2c(cnn2-c2ccnc(Cc3cc(F)cc(C(F)(F)F)c3)c2)C(=O)N1 (single isomer, unassigned) [Example 40 Isomer 1, 1-(2-(3-fluoro-5-(trifluoromethyl)benzyl)pyridin-4-yl)-6-methyl-1,5,6,7-tetrahydro-4H-pyrazolo[4,3-c]pyridin-4-one]
Emax [1]: 95%
EC50: 31.6 nM

Cc1cc(Cc2ccnc(-n3ncc4c3CCNC4=O)c2)cnc1F [Example 6, 1-(4-((6-fluoro-5-methylpyridin-3-yl)methyl)pyridin-2-yl)-1,5,6,7-tetrahydro-4H-pyrazolo[4,3-c]pyridin-4-one]
Emax [1]: 82%
EC50: 501 nM

Cc1cc(Cc2ccnc(-n3ncc4c3CCN(C)C4=O)c2)cnc1F [Example 7, 1-(4-((6-fluoro-5-methylpyridin-3-yl)methyl)pyridin-2-yl)-5-methyl-1,5,6,7-tetrahydro-4H-pyrazolo[4,3-c]pyridin-4-one]
Emax [1]: 83%
EC50: 200 nM

O=C1NCCc2nn(-c3cc(Cc4cccc(C(F)(F)F)c4)ccn3)cc21 [Example 8, 2-(4-(3-(trifluoromethyl)benzyl)pyridin-2-yl)-2,5,6,7-tetrahydro-4H-pyrazolo[4,3-c]pyridin-4-one]
Emax [1]: 75%
EC50: 316 nM

O=C1NCCCc2c1cnn2-c1cc(Cc2cc(F)cc(C(F)(F)F)c2)ccn1 [Example 10, 1-(4-(3-fluoro-5-(trifluoromethyl)benzyl)pyridin-2-yl)-5,6,7,8-tetrahydropyrazolo[4,3-c]azepin-4(1H)-one]
Emax [1]: 90%
EC50: 7.94 nM

O=C1NCCCc2c1cnn2-c1cc(Cc2cccc(C(F)(F)F)c2)ccn1 [Example 11, 1-(4-(3-(trifluoromethyl)benzyl)pyridin-2-yl)-5,6,7,8-tetrahydropyrazolo[4,3-c]azepin-4(1H)-one]
Emax [1]: 86%
EC50: 63.1 nM

O=C1NCCOc2c1cnn2-c1cc(Cc2cccc(C(F)(F)F)c2)ccn1 [Example 13, 1-(4-(3-(trifluoromethyl)benzyl)pyridin-2-yl)-6,7-dihydro-1H-pyrazolo[4,3-f][1,4]oxazepin-4(5H)-one]
Emax [1]: 89%
EC50: 25.1 nM

O=C1NCCOc2c1cnn2-c1cc(Cc2cc(F)cc(C(F)(F)F)c2)ccn1 [Example 14, 1-(4-(3-fluoro-5-(trifluoromethyl)benzyl)pyridin-2-yl)-6,7-dihydro-1H-pyrazolo[4,3-f][1,4]oxazepin-4(5H)-one]
Emax [1]: 103%
EC50: 10 nM

O=C1NCCc2c1cnn2-c1cc(Cc2cc(F)cc(C(F)(F)F)c2)cnn1 [Example 15, 1-(5-(3-fluoro-5-(trifluoromethyl)benzyl)pyridazin-3-yl)-1,5,6,7-tetrahydro-4H-pyrazolo[4,3-c]pyridin-4-one]
Emax [1]: 95%
EC50: 126 nM

O=C1NCCc2c1cnn2-c1cnnc(Cc2cc(F)cc(C(F)(F)F)c2)c1 [Example 17, 1-(6-(3-fluoro-5-(trifluoromethyl)benzyl)pyridazin-4-yl)-1,5,6,7-tetrahydro-4H-pyrazolo[4,3-c]pyridin-4-one]
Emax [1]: 96%
EC50: 1260 nM

O=C1NCCc2c1cnn2-c1cc(Oc2cc(F)cc(C(F)(F)F)c2)ccn1 [Example 18, 1-(4-(3-fluoro-5-(trifluoromethyl)phenoxy)pyridin-2-yl)-1,5,6,7-tetrahydro-4H-pyrazolo[4,3-c]pyridin-4-one]
Emax [1]: 82%
EC50: 79.4 nM

O=C1NCCc2c1cnn2-c1ccnc(Cc2ccc(Cl)cc2)c1 [Example 19, 1-(2-(4-chlorobenzyl)pyridin-4-yl)-1,5,6,7-tetrahydro-4H-pyrazolo[4,3-c]pyridin-4-one]
Emax: 73%
EC50: 631 nM

O=C1NCCc2c1cnn2-c1ccnc(Cc2cc(F)cc(Cl)c2)c1 [Example 20, 1-(2-(3-chloro-5-fluorobenzyl)pyridin-4-yl)-1,5,6,7-tetrahydro-4H-pyrazolo[4,3-c]pyridin-4-one]
Emax [1]: 101%
EC50: 158 nM

O=C1NCCc2c1cnn2-c1ccnc(Cc2cc(F)cc(F)c2)c1 [Example 21, 1-(2-(3,5-difluorobenzyl)pyridin-4-yl)-1,5,6,7-tetrahydro-4H-pyrazolo[4,3-c]pyridin-4-one]
Emax [1]: 100%
EC50: 1260 nM

O=C1NCCc2c1cnn2-c1ccnc(Cc2cccc(C(F)(F)F)c2)c1 [Example 22, 1-(2-(3-(trifluoromethyl)benzyl)pyridin-4-yl)-1,5,6,7-tetrahydro-4H-pyrazolo[4,3-c]pyridin-4-one]
Emax [1]: 91%
EC50: 200 nM

O=C1NCCc2c1cnn2-c1ccnc(Cc2ccc(F)c(C(F)(F)F)c2)c1 [Example 23, 1-(2-(4-fluoro-3-(trifluoromethyl)benzyl)pyridin-4-yl)-1,5,6,7-tetrahydro-4H-pyrazolo[4,3-c]pyridin-4-one]
Emax [1]: 90%
EC50: 158 nM

O=C1NCCc2c1cnn2-c1ccnc(Cc2cc(F)c(F)c(F)c2)c1 [Example 24, 1-(2-(3,4,5-trifluorobenzyl)pyridin-4-yl)-1,5,6,7-tetrahydro-4H-pyrazolo[4,3-c]pyridin-4-one]
Emax [1]: 95%
EC50: 316 nM

O=C1NCCc2c1cnn2-c1ccnc(Cc2ccc(F)c(Cl)c2)c1 [Example 25, 1-(2-(3-chloro-4-fluorobenzyl)pyridin-4-yl)-1,5,6,7-tetrahydro-4H-pyrazolo[4,3-c]pyridin-4-one]
Emax [1]: 89%
EC50: 158 nM

Cc1cc(F)cc(Cc2cc(-n3ncc4c3CCNC4=O)ccn2)c1 [Example 26, 1-(2-(3-fluoro-5-methylbenzyl)pyridin-4-yl)-1,5,6,7-tetrahydro-4H-pyrazolo[4,3-c]pyridin-4-one]
Emax [1]: 95%
EC50: 79.4 nM

O=C1NCCc2c1cnn2-c1ccnc(Cc2cc(Cl)cc(C(F)(F)F)c2)c1 [Example 27, 1-(2-(3-chloro-5-(trifluoromethyl)benzyl)pyridin-4-yl)-1,5,6,7-tetrahydro-4H-pyrazolo[4,3-c]pyridin-4-one]
Emax [1]: 90%
EC50: 79.4 nM

Cc1cc(Cc2cc(-n3ncc4c3CCNC4=O)ccn2)cc(C(F)(F)F)c1 [Example 28, 1-(2-(3-methyl-5-(trifluoromethyl)benzyl)pyridin-4-yl)-1,5,6,7-tetrahydro-4H-pyrazolo[4,3-c]pyridin-4-one]
Emax [1]: 88%
EC50: 100 nM

O=C1NCCc2c1cnn2-c1ccnc(Cc2cccc(C(F)(F)F)c2F)c1 [Example 29, 1-(2-(2-fluoro-3-(trifluoromethyl)benzyl)pyridin-4-yl)-1,5,6,7-tetrahydro-4H-pyrazolo[4,3-c]pyridin-4-one]
Emax [1]: 57%
EC50: 2510 nM

O=C1NCCc2c1cnn2-c1ccnc(Cc2cc(C(F)(F)F)ccc2F)c1 [Example 30, 1-(2-(2-fluoro-5-(trifluoromethyl)benzyl)pyridin-4-yl)-1,5,6,7-tetrahydro-4H-pyrazolo[4,3-c]pyridin-4-one]
Emax [1]: 77%
EC50: 794 nM

O=C1NCCc2c1cnn2-c1ccnc(Cc2cc(Cl)cc(Cl)c2)c1 [Example 31, 1-(2-(3,5-dichlorobenzyl)pyridin-4-yl)-1,5,6,7-tetrahydro-4H-pyrazolo[4,3-c]pyridin-4-one]
Emax [1]: 95%
EC50: 126 nM

O=C1NCCc2c1cnn2-c1ccnc(Cc2ccc(C(F)(F)F)cc2)c1 [Example 32, 1-(2-(4-(trifluoromethyl)benzyl)pyridin-4-yl)-1,5,6,7-tetrahydro-4H-pyrazolo[4,3-c]pyridin-4-one]
Emax [1]: 61%
EC50: 398 nM

N#Cc1cc(Cc2cc(-n3ncc4c3CCNC4=O)ccn2)cc(C(F)(F)F)c1 [Example 33, 3-((4-(4-oxo-4,5,6,7-tetrahydro-1H-pyrazolo[4,3-c]pyridin-1-yl)pyridin-2-yl)methyl)-5-(trifluoromethyl)benzonitrile]
Emax [1]: 58%
EC50: 3160 nM

O=C1NCCc2c1cnn2-c1ccnc(Cc2cc(C(F)(F)F)cc(C(F)(F)F)c2)c1 [Example 34, 1-(2-(3,5-bis(trifluoromethyl)benzyl)pyridin-4-yl)-1,5,6,7-tetrahydro-4H-pyrazolo[4,3-c]pyridin-4-one]
Emax [1]: 54%
EC50: 1000 nM

O=C(c1cc(F)cc(C(F)(F)F)c1)c1cc(-n2ncc3c2CCNC3=O)ccn1 [Example 35, 1-(2-(3-fluoro-5-(trifluoromethyl)benzoyl)pyridin-4-yl)-1,5,6,7-tetrahydro-4H-pyrazolo[4,3-c]pyridin-4-one]
Emax [1]: 40%
EC50: 3160 nM

O=C1NCCc2c1cnn2-c1ccnc(C(O)c2cc(F)cc(C(F)(F)F)c2)c1 (stereo not drawn) [Example 36, 1-(2-((3-fluoro-5-(trifluoromethyl)phenyl)(hydroxy)methyl)pyridin-4-yl)-1,5,6,7-tetrahydro-4H-pyrazolo[4,3-c]pyridin-4-one]
Emax [1]: 92%
EC50: 501 nM

O=C1NCCc2c1cnn2-c1ccnc(C(F)c2cc(F)cc(C(F)(F)F)c2)c1 (stereo not drawn) [Example 37, 1-(2-(fluoro(3-fluoro-5-(trifluoromethyl)phenyl)methyl)pyridin-4-yl)-1,5,6,7-tetrahydro-4H-pyrazolo[4,3-c]pyridin-4-one]
Emax [1]: 93%
EC50: 126 nM

O=C1NCCc2c1cnn2-c1ccnc(C(F)(F)c2cc(F)cc(C(F)(F)F)c2)c1 [Example 38, 1-(2-(difluoro(3-fluoro-5-(trifluoromethyl)phenyl)methyl)pyridin-4-yl)-1,5,6,7-tetrahydro-4H-pyrazolo[4,3-c]pyridin-4-one]
Emax [1]: 55%
EC50: 631 nM
